Structures are written as SMILES. Where a name gives a salt, the structure may show the parent alone. Read-outs that look alike come from different tables or passages of the source.

Assay type in all cases: cell-based, Plasmodium falciparum
Assay [1] has as its system P. falciparum K1CB1 (double mutant, C59R+S108N). Kind of assay: In vitro anti-Plasmodial activity against K1CB1. The protocol:
(§1) It is an object of the invention to provide anti-folate antimalarials with dual-binding modes, and pharmaceutically acceptable salts thereof, for substantially inhibiting dihydrofolate reductase enzymes. Enzymes, comprising dihydrofolate reductase of Plasmodium falciparum, wild-type, double (C59R+S108N), triple (N51+C59R+S108N, C59R+S108N+1164L), and quadruple (N51+C59R+S108N+I164L) mutants were prepared. The inhibition constants (Ki) of the enzymes with the invented compounds were investigated using a standard method. In vitro antimalarial activity (IC50) with malaria parasites carrying Tm4/8.2 (wild type), K1CB1 (double mutant, C59R+S108N), W2 (triple mutant N51I+C59R+S 108N), Cs1-2 (triple mutant, C59R+S108N+I164L), and V1/S (quadruple mutant, N51I+C59R+S108N+I164L) were also investigated using a standard method.

Assay [2] deals with P. falciparum V1/S (quadruple mutant, N51I+C59R+S108N+I164L). Kind of assay: In vitro anti-Plasmodial activity against V1/S. The protocol:
as §1

For assay [3], the system named is P. falciparum Tm4/8.2 (wild type). Kind of assay: In vitro anti-Plasmodial activity against Tm4/8.2. To be noted: P. falciparum Tm4/8.2, wild type DHFR. The protocol:
as §1

In assay [4] the test system is P. falciparum Cs1-2 (triple mutant, C59R+S108N+I164L). The assay can be described thus: In vitro anti-Plasmodial activity against Cs1-2. The protocol:
as §1

Assay [5] has as its system P. falciparum W2 (triple mutant N51I+C59R+S108N). The assay can be described thus: In vitro anti-Plasmodial activity against W2. The protocol:
as §1

[6] abbreviates: Plasmodium falciparum, read-out: IC50 K1CB1, P. falciparum K1CB1, double mutant.
The mark [7] stands for this setting: Plasmodium falciparum, read-out: IC50 V1/S, P. falciparum V1/S, quadruple mutant.
[8] abbreviates: Plasmodium falciparum, read-out: IC50 Cs1-2, P. falciparum Cs1-2, triple mutant.
Where [9] appears, read: Plasmodium falciparum, W2, read-out: IC50 W2, P. falciparum W2, triple mutant.

`CCc1nc(N)nc(N)c1OCCCOc1cccc(-c2c(N)nc(N)nc2CC)c1` [Compound A, 5-(3′-(3″-(2,4-diamino-6-ethylpyrimidin-5-yloxy)propoxy)phenyl)-6-ethylpyrimidine-2,4-diamine]: the IC50 in assay [1] (setting [6]) was 220 ± 60 nM; in assay [2] (setting [7]), 1720 ± 690 nM; in assay [3] (Plasmodium falciparum), 290 ± 50 nM; in assay [4] (setting [8]), 510 ± 80 nM; in assay [5] (setting [9]), 250 ± 80 nM.
For `CCc1nc(N)nc(N)c1OCCCOc1ccc(-c2c(N)nc(N)nc2CC)cc1` [Compound B, 5-(4′-(3″-(2,4-diamino-6-ethylpyrimidin-5-yloxy)propoxy)phenyl)-6-ethylpyrimidine-2,4-diamine], the IC50 in assay [1] (setting [6]) is more than 1000 nM; in assay [2] (read-out: IC50 V1/S, P. falciparum V1/S, quadruple mutant) it was more than 1000 nM; in assay [3] (Plasmodium falciparum) it was 69 ± 10 nM; in assay [4] (read-out: IC50 Cs1-2, P. falciparum Cs1-2, triple mutant), more than 1000 nM; in assay [5] (read-out: IC50 W2, P. falciparum W2, triple mutant), more than 1000 nM.
Regarding `CCc1nc(N)nc(N)c1OCCCOc1ccc(-c2c(N)nc(N)nc2CC)cc1` [Compound D, 5-(4′-(3″-(2,4-diamino-6-ethylpyrimidin-5-yloxy)propoxy)phenyl)-6-ethylpyrimidine-2,4-diamine dihydrochloride], the IC50 in assay [1] (read-out: IC50 K1CB1, P. falciparum K1CB1, double mutant, dihydrochloride) was found to be 1840 ± 310 nM; in assay [2] (read-out: IC50 V1/S, P. falciparum V1/S, quadruple mutant, dihydrochloride) it was 4400 ± 710 nM; in assay [3] (dihydrochloride) it was 63 ± 10 nM; in assay [4] (read-out: IC50 Cs1-2, P. falciparum Cs1-2, triple mutant, dihydrochloride), 3950 ± 360 nM; in assay [5] (read-out: IC50 W2, P. falciparum W2, triple mutant, dihydrochloride), 2380 ± 110 nM.
With `CCc1nc(N)nc(N)c1-c1ccc(OCCCOc2ccc(-c3c(N)nc(N)nc3CC)cc2)cc1` [Compound E, 5-(4′-3″-(4″′-(2,4-diamino-6-ethylpyrimidin-5-yl)phenoxy)propoxy)phenyl)-6-ethylpyrimidine-2,4-diamine dihydrochloride], the IC50 in assay [1] (setting [6]) came to 330 ± 40 nM; in assay [2] (setting [7]), 330 ± 20 nM; in assay [3] (Plasmodium falciparum), 35 nM; in assay [4] (setting [8]) it was 310 ± 20 nM; in assay [5] (setting [9]), 280 ± 20 nM.
For `CCc1nc(N)nc(N)c1-c1ccc(Cl)cc1` [Pyr, Pyrimethamine, reference compound] the same measures were 27000 ± 3330 nM, more than 100000 nM, 66 ± 30 nM, 37000 ± 5980 nM and 39000 ± 5420 nM.

(Values after patent US9000003B2, “Anti-folate antimalarials with dual-binding modes and their preparation” (priority 2011, dated 2015).)
